Consider two molecules from patent US20230013435A1, “COMPOSITION FOR TREATING SYNUCLEINOPATHIES” (STANDIGM INC., priority 2019, published 2023).

This series has as its system SH-SYSY cell line. The series is described as follows: Cytotoxicity, cell viability by MTT test. The note with it: SH-SYSY cells. The class given is cell-based. The protocol: An SH-SYSY cell line (ATCC) was used to confirm the cytotoxicity of nevirapine. The SH-SYSY cell line was seeded in a 96-well plate, cultured, treated with an increasing concentration (0, 10, 100 μM) of nevirapine, and then incubated at a constant temperature for 24 hours. Thereafter, cell viability was measured using an MTT test method. Cells treated with 0 μM nevirapine were used as the control. ***P<0.001 against the control. Also, in the next experiment, the cytotoxicity of pirenzepine to be used as a reference drug was tested in the same manner as in the cytotoxicity experiment of nevirapine.

For `Cc1ccnc2c1NC(=O)c1cccnc1N2C1CC1` [nevirapine, 11-cyclopropyl-5,11-dihydro-4-methyl-6H-dipyrido[3,2-b:2′,3′-e][1,4]diazepin-6-one], for the setting “10 μM, 24 hours”, the “cell viability compared with the control” value is reported as “not changed significantly”. Further, the “decrease in cell viability” value (100 μM, 24 hours) is reported as “approximately 70%”.

In the case of `CN1CCN(CC(=O)N2c3ccccc3C(=O)Nc3cccnc32)CC1` [pirenzepine], for the setting “0.5 μM”, the “cell viability compared with the control” value is given as “slight decrease”. In addition, the “decrease in cell viability” value (10 μM) is listed as “approximately 60%”.
